Source: PMC3858552, “The discovery of potent ribosomal S6 kinase inhibitors by high-throughput screening and structure-guided drug design” (Oncotarget, 2013)
Read-outs that look alike come from different tables or passages of the source.

How the values were obtained:
[1] = target: T1, S6K1 (Homo sapiens, UniProt P23443, T412E); test: S6K1 DELFIA phosphorylation assay (IC50 of screening hits); format: biochemical; details: for LE (ligand efficiency): calculated using the mean IC50 values; for IC50: repurchased samples
T1 construct: The His-tagged kinase domain of S6K1 (residues 1-421, catalogue number 14-486) used in the HTS; His; purchased Millipore (Upstate/Millipore) 14-486
Method: For primary screening hits, IC50 values were determined using a DELFIA® assay that monitors phosphorylation of a S6 peptide using a specific phospho-antibody. The enzyme reaction was carried out in 96 well polypropylene plates (#650261; Greiner Bio-One, Frickenhausen, Germany).
For each compound, a 10mM stock was diluted in water resulting in a 1250 μM solution in 12.5% (v/v) DMSO. Compounds were manually diluted 1 in 3 in 12.5% (v/v) DMSO to give an eight point dilution curve in duplicate. Finally, 5 μL compound solution or 12.5% (v/v) DMSO was transferred to the assay plate resulting in compound assay concentrations of 0.12-250 μM.
Subsequently, 20 μL of reaction reagents were added to the assay plate resulting in final assay concentrations of 1 μM S6 peptide (biotin-[…], synthesised by J. Metcalfe, ICR), 2 nM S6K1 (#14-486; Millipore, Billerica, MA, USA) and 30 μM ATP in assay buffer consisting of 40 mM HEPES pH 7.4, 10 mM MgCl2, 1 mM DTT and 0.02% (v/v) Tween 20. The reaction was incubated for an hour at 37 °C and stopped by the addition of 125 μL buffer comprising 40 mM EDTA, 0.05% (v/v) Tween 20, 0.1% (w/v) BSA in TBS (10x concentrate, Sigma-Aldrich, Gillingham, UK). A 100 μL aliquot of the reaction solution was transferred to a black neutravidin-coated plate (#15117; Perbio/Thermo Scientific, Cramlington, UK) and incubated for an hour on a Titertek shaker (Flow Laboratories, Sutton, UK) at room temperature. The plates were washed four times with WellWash4 wash buffer (Thermo Life Sciences Ltd, Basingstoke, UK) containing 25 mM Tris pH 8, 150 mM NaCl and 0.1% (v/v) Tween 20 and incubated for an hour with 100 μL of an antibody mix consisting of 0.05 nM of an anti-phospho S6 antibody (#2211; Cell Signalling Technology) and 0.18 μg/mL of an europium-labelled anti-rabbit IgG, (#AD0105; PerkinElmer Life Sciences, Waltham, MA, USA) diluted in DELFIA assay buffer (#4002-0010; PerkinElmer Life Sciences). The plates were washed a further four times with WellWash4 wash buffer (Thermo Life Sciences) before the addition of 100 μL Enhancement Solution (#4001-0010; PerkinElmer Life Sciences). The plate was read on an EnVision® 2103 Multilabel Reader (PerkinElmer Life Sciences) using a time-resolved measurement mode reading fluorescence at 615 nm. IC50 values were calculated from a four-parameter logistics fit of percentage inhibition versus concentration using GraphPad Prism 5 (GraphPad Software, Inc., CA, USA).

[2] = target: S6K1 (Homo sapiens, UniProt P23443); test: S6K1 mobility shift (microfluidic) assay; format: biochemical; details: for LE (ligand efficiency): calculated using the mean IC50 values; for activity against S6K1 (in words): benzimidazole / azabenzimidazole oxadiazoles
Method: For all compounds from the benzimidazole oxadiazole/azabenzimidazole oxadiazole series, the IC50 values were determined using a microfluidic assay that monitors the separation of a phosphorylated product from its substrate. […] For each compound, a 10 mM stock concentration in 100% DMSO was used.
IC50 values were calculated from a four-parameter logistics fit of percentage inhibition versus concentration using GraphPad Prism 5 (GraphPad Software, Inc., CA, USA).

[3] = system: RPS6-ser235/236; test: Electrochemiluminescent ELISA, RPS6 Ser235/236 phosphorylation in intact cells; format: cell-based; details: Homo sapiens, HCV-29; HCV29 intact cells, 2 hours exposure, n=3; read-out: EC50 for 50% inhibition of RPS6 Ser235/236 phosphorylation
Method: (§1) The human bladder carcinoma cell line HCV29 was obtained from Dr Richard Lamb (University of Liverpool, UK). This cell line has elevated mTORC1 and S6K activity through loss of TSC1 [46] as a result of a missense mutation and TSC2 loss that was confirmed by immunoblotting (data not shown). Cells were cultured in RPMI (Invitrogen, Life Technologies Ltd, Paisley, UK) containing 2 mmol/L glutamine (Invitrogen), and supplemented with non-essential amino acids (Invitrogen) 10% fetal bovine serum (PAA Laboratories Ltd, Yeovil, UK) in 5% CO2 in air at 37 °C. GI50 values (concentrations) causing 50% inhibition of proliferation for tumour cells were determined using a sulforhodamine B assay. Electrochemiluminescent immunoassays (Meso Scale Discovery, Rockville, MD, USA) measuring the inhibition of phosphorylation of RPS6-ser235/236, AKT-Thr308, AKT-Ser473, GSK3b-Ser9 and S6K-Ser421/424 were carried out as described in Raynaud et al..

[4] = system: AKT-Ser473; test: Electrochemiluminescent ELISA, AKT-Ser473 phosphorylation in intact cells; format: cell-based; details: Homo sapiens, electrochemoluminescent ELISA
Method: as §1

[5] = system: S6K-Ser421/424; test: Electrochemiluminescent ELISA, S6K-Ser421/424 phosphorylation in intact cells; format: cell-based; details: Homo sapiens, electrochemoluminescent ELISA
Method: as §1

[6] = system: AKT-Thr308; test: Electrochemiluminescent ELISA, AKT-Thr308 phosphorylation in intact cells; format: cell-based; details: Homo sapiens, electrochemoluminescent ELISA
Method: as §1

[7] = system: HCV29 human bladder carcinoma cells; test: Sulforhodamine B proliferation assay (GI50); format: cell-based; details: HCV-29, 96 hours continuous exposure, read-out: GI50 (50% tumour growth inhibition)
Method: as §1

[8] = target: S6K2 (Homo sapiens, UniProt Q9UBS0); test: S6K2 inhibition; format: biochemical
[9] = system: GSK3b-Ser9; test: Electrochemiluminescent ELISA, GSK3b-Ser9 phosphorylation in intact cells; format: cell-based; details: Homo sapiens, electrochemoluminescent ELISA
Method: as §1

[10] = Table 2, confirmation DELFIA assay, mean ± standard error, duplicate
[11] = Table 3, confirmation DELFIA assay, mean ± standard error, duplicate
[12] = Table 4, mobility shift assay, mean ± SD triplicate, or duplicate/single measurement as footnoted, read-out: S6K1 IC50
[13] = Table 5, mobility shift assay, mean ± SD triplicate, or single measurement as footnoted, read-out: S6K1 IC50
[14] = Table 6, mobility shift assay, mean ± SD triplicate, or duplicate ± SE / single measurement as footnoted, read-out: S6K1 IC50

Sequence of S6K1 (Homo sapiens, UniProt P23443) (P23443 1-421): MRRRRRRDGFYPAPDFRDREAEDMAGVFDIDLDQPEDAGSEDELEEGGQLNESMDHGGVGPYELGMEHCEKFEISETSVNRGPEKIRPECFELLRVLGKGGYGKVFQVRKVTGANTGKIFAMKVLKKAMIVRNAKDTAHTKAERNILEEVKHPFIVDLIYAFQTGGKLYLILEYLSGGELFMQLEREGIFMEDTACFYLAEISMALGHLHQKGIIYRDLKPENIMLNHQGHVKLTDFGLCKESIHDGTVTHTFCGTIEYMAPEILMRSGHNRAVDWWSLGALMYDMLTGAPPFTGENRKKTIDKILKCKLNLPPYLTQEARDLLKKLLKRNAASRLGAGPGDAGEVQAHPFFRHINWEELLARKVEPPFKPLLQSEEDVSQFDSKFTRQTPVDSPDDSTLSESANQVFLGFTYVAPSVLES
T1 sequence (P23443 1-421 T412E limits assumed): as the sequence (P23443 1-421) above, with T412E counted along it
Sequence of S6K2 (Q9UBS0 whole entry): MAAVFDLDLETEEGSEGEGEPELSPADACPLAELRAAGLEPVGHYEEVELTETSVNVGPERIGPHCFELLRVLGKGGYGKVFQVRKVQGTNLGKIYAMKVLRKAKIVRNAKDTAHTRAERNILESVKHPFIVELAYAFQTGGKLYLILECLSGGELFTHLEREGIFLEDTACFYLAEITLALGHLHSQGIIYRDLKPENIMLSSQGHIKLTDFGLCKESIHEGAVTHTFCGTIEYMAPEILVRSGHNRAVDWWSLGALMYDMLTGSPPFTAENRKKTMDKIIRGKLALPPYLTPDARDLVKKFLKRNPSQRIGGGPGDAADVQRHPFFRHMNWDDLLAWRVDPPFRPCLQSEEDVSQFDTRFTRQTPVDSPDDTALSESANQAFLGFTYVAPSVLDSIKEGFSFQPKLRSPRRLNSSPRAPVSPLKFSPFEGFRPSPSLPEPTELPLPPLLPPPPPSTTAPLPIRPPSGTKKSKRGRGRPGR

O=c1c2ccccc2nc(-c2cccnc2)n1-c1ccc(Br)cn1 [Compound 7]
LE (ligand efficiency) ([1]; Table 2): 0.38
IC50 [1, 10]: 0.26 ± 0.15 µM

Cc1ccc(-n2c(-c3ccccn3)nc3ccccc3c2=O)cc1 [Compound 8]
LE (ligand efficiency) ([1]; Table 2): 0.33
IC50 [1, 10]: 1.55 ± 0.92 µM

O=c1c2ccccc2nc(-c2ccccn2)n1-c1ccccc1 [Compound 9]
LE (ligand efficiency) ([1]; Table 2): 0.33
IC50 [1, 10]: 2.97 ± 1.53 µM

CC(C)n1c(-c2nonc2N)nc2ccccc21 [Compound 10]
LE (ligand efficiency) ([1]; Table 3): 0.50
IC50 [1, 11]: 0.34 ± 0.14 µM

C=CCn1c(-c2nonc2N)nc2ccccc21 [Compound 11]
IC50 ([1]; HTS hits): 7 µM
LE (ligand efficiency) ([1]; Table 3): 0.40
IC50 [1, 11]: 6.98 ± 2.07 µM

Cn1c(-c2nonc2N)nc2ccccc21 [Compound 15a, 4-(1-Methyl-1H-benzoimidazol-2-yl)-1,2,5-oxadiazole-3-ylamine]
LE (ligand efficiency) ([2]; Table 4): 0.58
IC50 [2, 12]: 0.194 µM
activity against S6K1 (in words) [2]: about six-fold less active

CCn1c(-c2nonc2N)nc2ccccc21 [Compound 15b, 4-(1-Ethyl-1H-benzoimidazol-2-yl)-1,2,5-oxadiazole-3-ylamine]
LE (ligand efficiency) ([2]; Table 4): 0.59
IC50 [2, 12]: 0.0598 ± 0.0324 µM

Nc1nonc1-c1nc2ccccc2n1C1CC1 [Compound 15c, 4-(1-Cyclopropyl-1H-benzoimidazol-2-yl)-1,2,5-oxadiazole-3-ylamine]
LE (ligand efficiency) ([2]; Table 4): 0.57
IC50 [2, 12]: 0.0366 ± 0.007 µM

Nc1nonc1-c1nc2ccccc2n1Cc1ccccc1 [Compound 15d, 4-(1-Benzyl-1H-benzoimidazol-2-yl)-1,2,5-oxadiazole-3-ylamine]
IC50 [2, 12]: > 100 µM
activity against S6K1 (in words) [2]: complete loss of biochemical activity

Nc1nonc1-c1nc2ccccc2n1CC1CC1 [Compound 15e, 4-(1-Cyclopropylmethyl-1H-benzoimidazol-2-yl)-1,2,5-oxadiazole-3-ylamine]
LE (ligand efficiency) ([2]; Table 4): 0.56
IC50 [2, 12]: 0.0198 µM

CC(=O)Nc1nonc1-c1nc2ccccc2n1C1CC1 [Compound 16, N-[4-(1-Cyclopropyl-1H-benzoimidazol->2-yl)-1,2,5-oxadiazole-3-yl]-acetamide]
IC50 ([2]; acetylated aminooxadiazole, read-out: S6K IC50): > 100 µM

CCn1c(-c2nonc2N)nc2cc(Br)ccc21 [Compound 20a, 3-Amino-4-(5-bromo-1-ethyl-1H-benzimidazol-2-yl)-1,2,5-oxadiazole]
LE (ligand efficiency) ([2]; Table 5): 0.55
IC50 [2, 13]: 0.0664 ± 0.0056 µM

CCn1c(-c2nonc2N)nc2cc(-c3ccccc3)ccc21 [Compound 20b, 3-Amino-4-(1-ethyl-5-phenyl-1H-benzimidazol-2-yl)-1,2,5-oxadiazole]
LE (ligand efficiency) ([2]; Table 5): 0.35
IC50 [2, 13]: 1.64 ± 0.53 µM

CCn1c(-c2nonc2N)nc2cc(C3CC3)ccc21 [Compound 20c, 3-Amino-4-(5-cyclopropyl-1-ethyl-1H-benzimidazol-2-yl)-1,2,5-oxadiazole]
LE (ligand efficiency) ([2]; Table 5): 0.45
IC50 [2, 13]: 0.334 ± 0.0251 µM

CCn1c(-c2nonc2N)nc2cc(OC)ccc21 [Compound 20d, 3-Amino-4-(1-ethyl-5-methoxy-1H-benzimidazol-2-yl)-1,2,5-oxadiazole]
LE (ligand efficiency) ([2]; Table 5): 0.52
IC50 [2, 13]: 0.0634 µM

CCn1c(-c2nonc2N)nc2cc(NC)ccc21 [Compound 20e, 3-Amino-4-(1-ethyl-5-methylamino-1H-benzimidazol-2-yl)-1,2,5-oxadiazole]
LE (ligand efficiency) ([2]; Table 5): 0.50
IC50 [2, 13]: 0.148 µM

CCn1c(-c2nonc2N)nc2cccc(Br)c21 [Compound 20f, 3-Amino-4-(7-bromo-1-ethyl-1H-benzimidazol-2-yl)-1,2,5-oxadiazole]
LE (ligand efficiency) ([2]; Table 5): 0.50
IC50 [2, 13]: 0.303 ± 0.021 µM

CCn1c(-c2nonc2N)nc2cccc(-c3cccnc3)c21 [Compound 20g, 3-Amino-4-(7-(3-pyridinyl)-1-ethyl-1H-benzimidazol-2-yl)-1,2,5-oxadiazole]
LE (ligand efficiency) ([2]; Table 5): 0.39
IC50 [2, 13]: 0.352 ± 0.173 µM

CCn1c(-c2nonc2N)nc2cnc(Br)cc21 [Compound 21a, 3-Amino-4-(6-bromo-1-ethyl-1H-imidazo[4,5-c]pyridin-2-yl)-1,2,5-oxadiazole]
LE (ligand efficiency) ([2]; Table 6): 0.59
IC50 [2, 14]: 0.0197 ± 0.0026 µM

CCn1c(-c2nonc2N)nc2cnc(Oc3cccc(S(C)(=O)=O)c3)cc21 [Compound 21b, 4-[1-Ethyl-6-(3-methanesulfonyl-phenoxy)-1H-imidazo[4,5-c]pyridin-2-yl]-1,2,5-oxadiazole-3-ylamine]
LE (ligand efficiency) ([2]; Table 6): 0.34
IC50 [2, 14]: 0.103 ± 0.023 µM

CCn1c(-c2nonc2N)nc2cnc(-c3ccccc3)cc21 [Compound 21c, 4-(1-Ethyl-6-phenyl-1H-imidazo[4,5-c]pyridin-2-yl)-1,2,5-oxadiazole-3-ylamine]
IC50 [2, 14]: > 100 µM
activity against S6K1 (in words) [2]: abolished all affinity for S6K1

CCn1c(-c2nonc2N)nc2cnc(N3CCOCC3)cc21 [Compound 21d, 4-(1-Ethyl-6-morpholin-4-yl-1H-imidazo[4,5-c]pyridin-2-yl)-1,2,5-oxadiazole-3-ylamine]
LE (ligand efficiency) ([2]; Table 6): 0.42
IC50 [2, 14]: 0.11 µM

CCn1c(-c2nonc2N)nc2cnc(C)cc21 [Compound 21e, 4-(1-Ethyl-6-methyl-1H-imidazo[4,5-c]pyridin-2-yl)-1,2,5-oxadiazole-3-ylamine]
EC50 [3]: 9.1 ± 1.5 µM
IC50 [4]: > 15 µM
IC50 [5]: > 15 µM
IC50 [6]: > 15 µM
GI50 [7]: 3.5 µM
IC50 [8]: 0.3 ± 0.102 µM
ligand efficiency [2]: 0.6
LE (ligand efficiency) ([2]; Table 6): 0.60
IC50 [2, 14]: 0.0174 ± 0.006 µM
IC50 [9]: > 15 µM
